The results in this text go back to ChEMBL document CHEMBL3991601, “The target landscape of clinical kinase drugs” (Science, 2017).

Active and inactive are the calls of the source. Rule as the data show it, for most assays here: actives have a measured Kd and inactives only a lower limit.

The target of experiment [1] is Adenylate kinase 2, mitochondrial (Homo sapiens, UniProt P54819).
For experiment [2], the target named is Serine/threonine-protein kinase B-raf (Homo sapiens, UniProt P15056).
Experiment [3] addresses Cyclin-dependent kinase 12 (Homo sapiens, UniProt Q9NYV4).
Experiment [4] addresses Cyclin-dependent kinase 4 (Homo sapiens, UniProt P11802).
In experiment [5] the target is Cyclin-dependent kinase 5 (Homo sapiens, UniProt Q00535).
For experiment [6], the target named is Dual specificity protein kinase CLK1 (Homo sapiens, UniProt P49759).
Experiment [7] deals with Casein kinase I isoform epsilon (Homo sapiens, UniProt P49674).
Sequence of Casein kinase I isoform epsilon (P49674 whole entry, canonical isoform): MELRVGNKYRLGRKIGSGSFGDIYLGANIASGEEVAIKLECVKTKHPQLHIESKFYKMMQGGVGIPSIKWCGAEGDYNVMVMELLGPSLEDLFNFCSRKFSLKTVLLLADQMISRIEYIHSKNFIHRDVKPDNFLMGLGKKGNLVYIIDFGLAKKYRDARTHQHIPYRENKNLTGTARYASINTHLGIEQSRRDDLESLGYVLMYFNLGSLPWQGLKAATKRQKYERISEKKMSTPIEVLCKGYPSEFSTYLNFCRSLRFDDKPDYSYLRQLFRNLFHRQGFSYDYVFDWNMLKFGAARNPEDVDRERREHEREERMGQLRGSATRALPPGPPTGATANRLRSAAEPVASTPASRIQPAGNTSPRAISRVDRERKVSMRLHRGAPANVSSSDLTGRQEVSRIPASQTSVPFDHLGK
In another experiment the target is Ephrin type-A receptor 4 (Homo sapiens, UniProt P54764).
Sequence of Ephrin type-A receptor 4 (P54764 whole entry): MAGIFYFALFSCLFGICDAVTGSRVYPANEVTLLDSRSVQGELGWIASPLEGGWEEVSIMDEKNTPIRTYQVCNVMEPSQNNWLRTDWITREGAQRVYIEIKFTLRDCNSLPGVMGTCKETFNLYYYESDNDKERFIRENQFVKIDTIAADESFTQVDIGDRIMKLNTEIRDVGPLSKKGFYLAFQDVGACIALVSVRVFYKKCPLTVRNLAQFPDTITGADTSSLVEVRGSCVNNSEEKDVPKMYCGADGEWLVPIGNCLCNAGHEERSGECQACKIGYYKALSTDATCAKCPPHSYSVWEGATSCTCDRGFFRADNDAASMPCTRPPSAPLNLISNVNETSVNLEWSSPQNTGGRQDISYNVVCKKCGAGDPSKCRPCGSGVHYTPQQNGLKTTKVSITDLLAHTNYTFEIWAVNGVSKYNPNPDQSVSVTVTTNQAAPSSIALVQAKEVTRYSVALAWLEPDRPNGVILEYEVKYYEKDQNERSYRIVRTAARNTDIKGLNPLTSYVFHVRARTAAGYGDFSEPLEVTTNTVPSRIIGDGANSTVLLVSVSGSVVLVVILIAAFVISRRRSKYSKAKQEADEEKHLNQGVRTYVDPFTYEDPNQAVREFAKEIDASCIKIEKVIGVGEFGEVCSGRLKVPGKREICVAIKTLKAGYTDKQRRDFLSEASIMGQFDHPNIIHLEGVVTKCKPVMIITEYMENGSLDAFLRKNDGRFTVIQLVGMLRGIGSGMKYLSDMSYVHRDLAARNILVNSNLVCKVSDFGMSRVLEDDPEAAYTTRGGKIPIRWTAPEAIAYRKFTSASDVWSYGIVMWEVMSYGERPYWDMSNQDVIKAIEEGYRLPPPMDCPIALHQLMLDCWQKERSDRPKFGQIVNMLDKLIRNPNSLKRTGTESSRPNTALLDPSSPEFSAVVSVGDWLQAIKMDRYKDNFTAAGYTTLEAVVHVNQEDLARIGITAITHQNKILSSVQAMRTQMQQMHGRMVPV
Experiment [8] has as its target Serine/threonine-protein kinase/endoribonuclease IRE1 (Homo sapiens, UniProt O75460).
Experiment [9] has as its target Insulin-like growth factor 1 receptor (Homo sapiens, UniProt P08069).
The target of experiment [10] is Mitogen-activated protein kinase 10 (Homo sapiens, UniProt P53779).
Sequence of Mitogen-activated protein kinase 10 (P53779 whole entry): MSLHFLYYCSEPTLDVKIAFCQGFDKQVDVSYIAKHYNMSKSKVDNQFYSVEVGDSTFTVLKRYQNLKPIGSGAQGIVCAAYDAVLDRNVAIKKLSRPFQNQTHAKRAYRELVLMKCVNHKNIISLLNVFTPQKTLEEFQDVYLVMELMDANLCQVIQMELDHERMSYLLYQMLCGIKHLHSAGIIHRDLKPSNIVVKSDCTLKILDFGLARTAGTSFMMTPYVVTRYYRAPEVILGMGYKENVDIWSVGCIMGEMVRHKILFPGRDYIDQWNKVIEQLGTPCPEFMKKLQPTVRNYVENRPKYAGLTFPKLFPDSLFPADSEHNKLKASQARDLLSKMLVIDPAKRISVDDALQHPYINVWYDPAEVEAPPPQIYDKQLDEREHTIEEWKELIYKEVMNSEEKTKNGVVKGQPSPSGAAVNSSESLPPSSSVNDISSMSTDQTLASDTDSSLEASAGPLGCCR
Experiment [11] has as its target T1, Mitogen-activated protein kinase 15 (Homo sapiens, UniProt Q8TD08).
T1 sequence (Q8TD08 whole entry): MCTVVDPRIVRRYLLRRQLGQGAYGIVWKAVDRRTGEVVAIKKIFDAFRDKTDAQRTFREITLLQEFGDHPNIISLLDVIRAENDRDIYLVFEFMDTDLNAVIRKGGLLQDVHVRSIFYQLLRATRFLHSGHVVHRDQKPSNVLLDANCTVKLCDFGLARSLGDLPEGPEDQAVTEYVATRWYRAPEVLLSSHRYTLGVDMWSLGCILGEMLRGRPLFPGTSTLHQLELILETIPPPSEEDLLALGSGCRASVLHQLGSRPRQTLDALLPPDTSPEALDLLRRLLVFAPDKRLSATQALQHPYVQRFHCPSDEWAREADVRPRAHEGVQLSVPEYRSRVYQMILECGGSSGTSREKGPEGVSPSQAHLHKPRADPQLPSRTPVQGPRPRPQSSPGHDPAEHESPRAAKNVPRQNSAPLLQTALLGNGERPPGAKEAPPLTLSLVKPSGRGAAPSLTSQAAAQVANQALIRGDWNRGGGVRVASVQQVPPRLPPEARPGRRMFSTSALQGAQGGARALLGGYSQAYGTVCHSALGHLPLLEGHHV

Experiment [12] has as its target T2, cGMP-dependent protein kinase 1 (Homo sapiens, UniProt Q13976).
T2 sequence (Q13976 whole entry): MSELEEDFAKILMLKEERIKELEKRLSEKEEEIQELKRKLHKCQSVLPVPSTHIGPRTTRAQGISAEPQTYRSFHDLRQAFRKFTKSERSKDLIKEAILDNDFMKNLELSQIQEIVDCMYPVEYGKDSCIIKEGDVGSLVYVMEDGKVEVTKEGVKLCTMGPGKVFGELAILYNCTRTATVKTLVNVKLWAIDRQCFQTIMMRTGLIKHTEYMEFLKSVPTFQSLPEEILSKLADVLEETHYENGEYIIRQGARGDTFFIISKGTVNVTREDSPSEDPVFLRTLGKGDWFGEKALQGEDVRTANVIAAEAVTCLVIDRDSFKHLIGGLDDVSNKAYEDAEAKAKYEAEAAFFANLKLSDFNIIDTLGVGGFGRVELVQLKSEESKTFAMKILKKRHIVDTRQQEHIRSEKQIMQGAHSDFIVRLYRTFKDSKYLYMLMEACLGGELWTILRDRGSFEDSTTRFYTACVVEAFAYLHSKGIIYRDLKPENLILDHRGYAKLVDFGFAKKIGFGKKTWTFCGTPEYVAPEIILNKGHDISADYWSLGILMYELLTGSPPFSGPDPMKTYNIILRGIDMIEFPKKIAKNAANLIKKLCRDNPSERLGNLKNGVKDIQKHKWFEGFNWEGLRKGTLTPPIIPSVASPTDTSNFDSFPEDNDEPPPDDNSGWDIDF

The target in experiment [13] is T3, Signal recognition particle receptor subunit alpha (Homo sapiens, UniProt P08240).
T3 sequence (P08240 whole entry): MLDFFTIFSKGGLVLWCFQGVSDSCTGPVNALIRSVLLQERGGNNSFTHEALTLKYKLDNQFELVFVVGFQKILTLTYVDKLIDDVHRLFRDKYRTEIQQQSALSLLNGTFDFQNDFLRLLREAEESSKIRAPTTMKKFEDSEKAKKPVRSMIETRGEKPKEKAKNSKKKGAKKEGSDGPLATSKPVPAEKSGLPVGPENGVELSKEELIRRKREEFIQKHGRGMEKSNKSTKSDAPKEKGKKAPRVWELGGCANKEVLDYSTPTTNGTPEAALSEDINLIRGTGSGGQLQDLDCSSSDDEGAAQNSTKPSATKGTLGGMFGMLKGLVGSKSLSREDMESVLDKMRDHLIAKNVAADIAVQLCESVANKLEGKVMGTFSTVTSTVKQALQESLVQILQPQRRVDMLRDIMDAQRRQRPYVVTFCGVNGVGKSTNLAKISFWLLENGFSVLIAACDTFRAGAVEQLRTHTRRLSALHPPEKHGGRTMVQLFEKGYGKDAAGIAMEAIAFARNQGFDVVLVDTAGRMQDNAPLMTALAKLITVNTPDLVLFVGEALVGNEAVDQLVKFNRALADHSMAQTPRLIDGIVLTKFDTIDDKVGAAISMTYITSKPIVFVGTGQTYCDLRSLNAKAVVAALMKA

Experiment [14] concerns the target T4, EKC/KEOPS complex subunit TP53RK (Homo sapiens, UniProt Q96S44).
T4 sequence (Q96S44 whole entry): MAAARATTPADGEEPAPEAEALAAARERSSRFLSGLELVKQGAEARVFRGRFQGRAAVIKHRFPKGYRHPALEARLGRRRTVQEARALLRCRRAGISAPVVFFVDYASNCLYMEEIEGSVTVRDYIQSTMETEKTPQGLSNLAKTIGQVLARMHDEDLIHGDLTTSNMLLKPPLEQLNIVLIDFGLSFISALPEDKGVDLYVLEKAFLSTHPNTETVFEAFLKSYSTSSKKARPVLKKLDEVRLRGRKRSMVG

Experiment [15] has as its target Glycogen synthase kinase-3 beta (Homo sapiens, UniProt P49841).
Also: in the data inactive means no Kd found up to 30 µM.

Sequence of Serine/threonine-protein kinase/endoribonuclease IRE1 (O75460 whole entry): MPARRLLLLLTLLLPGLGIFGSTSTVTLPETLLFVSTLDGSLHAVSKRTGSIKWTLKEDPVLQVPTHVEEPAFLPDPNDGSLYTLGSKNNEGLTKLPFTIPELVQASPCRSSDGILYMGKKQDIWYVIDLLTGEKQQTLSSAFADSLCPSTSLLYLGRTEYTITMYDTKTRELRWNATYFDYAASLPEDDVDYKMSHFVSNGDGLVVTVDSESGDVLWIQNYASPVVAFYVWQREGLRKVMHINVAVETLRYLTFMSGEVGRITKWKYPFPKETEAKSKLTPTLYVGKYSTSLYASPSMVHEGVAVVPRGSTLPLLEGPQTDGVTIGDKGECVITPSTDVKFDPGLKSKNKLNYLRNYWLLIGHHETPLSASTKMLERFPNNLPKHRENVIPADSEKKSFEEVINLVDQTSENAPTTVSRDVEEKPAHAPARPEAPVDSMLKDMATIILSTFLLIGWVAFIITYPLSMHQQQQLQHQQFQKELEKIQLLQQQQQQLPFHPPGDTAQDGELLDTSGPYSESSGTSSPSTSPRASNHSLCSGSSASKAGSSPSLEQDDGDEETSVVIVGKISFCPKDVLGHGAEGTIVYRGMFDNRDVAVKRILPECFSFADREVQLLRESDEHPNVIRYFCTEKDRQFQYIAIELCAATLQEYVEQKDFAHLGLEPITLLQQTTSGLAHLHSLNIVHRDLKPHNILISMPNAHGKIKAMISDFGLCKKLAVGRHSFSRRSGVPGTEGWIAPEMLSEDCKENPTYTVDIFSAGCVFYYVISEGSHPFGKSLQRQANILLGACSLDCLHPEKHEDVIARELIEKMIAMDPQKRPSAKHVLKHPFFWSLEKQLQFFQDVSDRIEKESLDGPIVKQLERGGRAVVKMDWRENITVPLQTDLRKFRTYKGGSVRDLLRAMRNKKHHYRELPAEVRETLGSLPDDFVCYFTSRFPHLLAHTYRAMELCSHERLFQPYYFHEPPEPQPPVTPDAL
Sequence of Insulin-like growth factor 1 receptor (P08069 31-736 limits assumed): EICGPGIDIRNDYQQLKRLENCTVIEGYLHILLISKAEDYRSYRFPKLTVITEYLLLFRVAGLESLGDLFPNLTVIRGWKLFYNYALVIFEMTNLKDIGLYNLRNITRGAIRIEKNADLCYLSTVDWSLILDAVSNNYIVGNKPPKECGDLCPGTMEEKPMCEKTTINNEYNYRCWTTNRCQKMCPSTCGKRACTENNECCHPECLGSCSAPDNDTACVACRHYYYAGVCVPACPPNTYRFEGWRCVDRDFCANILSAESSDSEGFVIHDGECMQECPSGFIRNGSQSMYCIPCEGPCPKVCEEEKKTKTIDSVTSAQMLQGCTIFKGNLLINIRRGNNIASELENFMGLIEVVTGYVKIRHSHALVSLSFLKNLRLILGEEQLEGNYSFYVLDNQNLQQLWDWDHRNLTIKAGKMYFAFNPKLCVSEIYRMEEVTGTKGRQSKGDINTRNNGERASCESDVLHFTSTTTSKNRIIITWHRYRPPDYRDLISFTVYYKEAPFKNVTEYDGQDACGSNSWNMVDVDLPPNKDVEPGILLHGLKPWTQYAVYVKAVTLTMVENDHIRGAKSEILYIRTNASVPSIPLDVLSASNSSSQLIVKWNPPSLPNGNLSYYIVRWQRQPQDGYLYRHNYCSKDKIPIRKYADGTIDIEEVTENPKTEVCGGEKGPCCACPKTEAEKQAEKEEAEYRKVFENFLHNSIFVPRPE
Sequence of Insulin-like growth factor 1 receptor (P08069 741-1367 limits assumed): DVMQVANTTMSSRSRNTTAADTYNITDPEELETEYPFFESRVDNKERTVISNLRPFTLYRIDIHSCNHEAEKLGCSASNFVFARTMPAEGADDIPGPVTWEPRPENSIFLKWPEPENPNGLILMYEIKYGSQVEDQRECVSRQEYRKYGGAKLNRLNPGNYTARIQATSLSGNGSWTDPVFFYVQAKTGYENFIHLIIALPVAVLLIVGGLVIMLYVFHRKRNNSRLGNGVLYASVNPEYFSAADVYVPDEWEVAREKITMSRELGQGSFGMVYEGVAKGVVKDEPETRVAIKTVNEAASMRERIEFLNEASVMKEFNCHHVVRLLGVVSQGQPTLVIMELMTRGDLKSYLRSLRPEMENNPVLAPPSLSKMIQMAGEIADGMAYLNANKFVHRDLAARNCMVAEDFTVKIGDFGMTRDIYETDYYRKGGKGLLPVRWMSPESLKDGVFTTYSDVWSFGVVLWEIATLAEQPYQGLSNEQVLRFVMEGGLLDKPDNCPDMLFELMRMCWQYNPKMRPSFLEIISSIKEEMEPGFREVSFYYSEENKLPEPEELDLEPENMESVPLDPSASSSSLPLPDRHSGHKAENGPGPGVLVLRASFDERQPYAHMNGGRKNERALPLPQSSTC
Sequence of Serine/threonine-protein kinase B-raf (P15056 whole entry): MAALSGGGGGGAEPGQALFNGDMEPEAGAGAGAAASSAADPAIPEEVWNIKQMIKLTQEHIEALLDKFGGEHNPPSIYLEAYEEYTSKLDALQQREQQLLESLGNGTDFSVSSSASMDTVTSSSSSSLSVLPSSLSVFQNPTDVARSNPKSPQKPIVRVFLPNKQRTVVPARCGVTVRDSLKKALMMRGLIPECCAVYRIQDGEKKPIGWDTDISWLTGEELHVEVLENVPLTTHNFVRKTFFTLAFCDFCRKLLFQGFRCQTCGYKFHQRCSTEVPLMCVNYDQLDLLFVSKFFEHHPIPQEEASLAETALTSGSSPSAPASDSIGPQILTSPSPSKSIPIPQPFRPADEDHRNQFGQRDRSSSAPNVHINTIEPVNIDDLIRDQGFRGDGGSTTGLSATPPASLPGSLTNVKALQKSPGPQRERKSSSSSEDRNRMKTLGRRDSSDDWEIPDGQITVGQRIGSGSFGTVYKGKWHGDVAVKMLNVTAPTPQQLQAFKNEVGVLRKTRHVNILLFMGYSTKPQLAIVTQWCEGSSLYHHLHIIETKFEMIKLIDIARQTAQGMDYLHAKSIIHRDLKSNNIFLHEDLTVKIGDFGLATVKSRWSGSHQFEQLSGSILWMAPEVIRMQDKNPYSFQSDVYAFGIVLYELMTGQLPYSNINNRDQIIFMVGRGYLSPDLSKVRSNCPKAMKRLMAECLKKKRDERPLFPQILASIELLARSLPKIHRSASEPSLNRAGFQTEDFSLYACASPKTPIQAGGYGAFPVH

On to `Cc1nc2cc(-c3nn(C(C)C)c4ncnc(N)c34)ccc2o1`, for which the Kd in experiment [1], in [2], in experiment [3], in [4], in experiment [5] and in experiment [6] was > 30 µM (inactive) in each case. In addition, the Kd in [7] was 0.158 µM (active); at Ephrin type-A receptor 4, > 30 µM (inactive); in [8], > 30 µM (inactive); in [9] it was > 30 µM (inactive); in experiment [10], > 30 µM (inactive); in experiment [11], > 30 µM (inactive). In addition, the Kd in experiment [12], in experiment [13] and in experiment [14] was > 30 µM (inactive) each time.

As to `COc1cc(Nc2ncc3c(n2)-c2ccc(Cl)cc2C(c2c(F)cccc2OC)=NC3)ccc1C(=O)O` [ALISERTIB], the Kd in [1], in experiment [2], in experiment [3], in [4], in experiment [6] and in [7] was > 30 µM (inactive) in each case. The Kd in [8], in experiment [10], in [11], in [13] and in experiment [14] was > 30 µM (inactive) in each case.

On to `O=C(Nc1c[nH]nc1-c1nc2cc(CN3CCOCC3)ccc2[nH]1)NC1CC1` [AT-9283], for which the Kd in experiment [1] is > 30 µM (inactive); in experiment [2] it was > 30 µM (inactive); in experiment [3] it was > 30 µM (inactive); in experiment [4], 1.29 µM (active); in experiment [6], 2.04 µM (active); in experiment [7], > 30 µM (inactive). Moreover, the equilibrium dissociation constant (Kd) was 43.9 µM (active) at Ephrin type-A receptor 4; > 30 µM (inactive) in experiment [8]; 0.007 µM (active) in [15]; > 30 µM (inactive) in experiment [9]; 0.358 µM (active) in experiment [10]; > 30 µM (inactive) in experiment [11]. Further, the Kd in [12], in experiment [13] and in experiment [14] was > 30 µM (inactive) throughout.

On to `NC(=O)Nc1cc(-c2cccc(F)c2)sc1C(=O)N[C@H]1CCCNC1` [AZD-7762], for which the Kd in experiment [1], in experiment [2], in experiment [3], in experiment [4], in experiment [5] and in experiment [6] was > 30 µM (inactive) each time. Also, the Kd (in [7]; at Ephrin type-A receptor 4; in experiment [15]; in experiment [9]; in experiment [10]; in [11]) was > 30 µM (inactive) in each case. For the same molecule, the Kd in [12], in experiment [13] and in experiment [14] was > 30 µM (inactive) throughout.

For `Cc1cc(Nc2ncc(Cl)c(Nc3ccccc3S(=O)(=O)C(C)C)n2)c(OC(C)C)cc1C1CCNCC1` [CERITINIB], the Kd in experiment [1] was > 30 µM (inactive); in experiment [2], > 30 µM (inactive); in experiment [3] it was > 30 µM (inactive); in [4], > 30 µM (inactive); in experiment [5], > 30 µM (inactive); in experiment [6], 1.06 µM. Also, the Kd (in [7]; at Ephrin type-A receptor 4; in experiment [8]; in experiment [15]; in [10]; in experiment [11]) was > 30 µM (inactive) each time. For the same molecule, the Kd in experiment [12], in experiment [13] and in [14] was > 30 µM (inactive) throughout.

Consider `O=C(Nc1cc(C(F)(F)F)cc(C(F)(F)F)c1)c1cc(Cl)ccc1O` [IMD-0354], for which the Kd in experiment [1], in experiment [2], in experiment [3], in experiment [4], in experiment [6] and in experiment [7] was > 30 µM (inactive) each time. Also, the Kd (at Ephrin type-A receptor 4; in experiment [8]; in experiment [15]; in experiment [9]; in experiment [10]; in experiment [11]) was > 30 µM (inactive) throughout. The Kd in experiment [12], in experiment [13] and in experiment [14] was > 30 µM (inactive) in each case.

On to `CNC(=O)c1nn(C)c2c1C(C)(C)Cc1cnc(Nc3ccc(N4CCN(C)CC4)cc3)nc1-2` [MILCICLIB], for which the Kd is > 30 µM (inactive) in experiment [1]; > 30 µM (inactive) in [2]; > 30 µM (inactive) in experiment [3]; 0.008 µM (active) in [6]; 8.13 µM (active) on Ephrin type-A receptor 4; > 30 µM (inactive) in experiment [8]. Further, the Kd in experiment [15], in [9], in experiment [11], in [12], in experiment [13] and in [14] was > 30 µM (inactive) in each case.

As to `CC(C)c1cc(CNc2nc(Nc3cc(C4CC4)[nH]n3)cc(N3CCN(C)CC3)n2)on1` [XL-228], the Kd in experiment [1], in experiment [2], in [3], in experiment [4], in experiment [5] and in [6] was > 30 µM (inactive) throughout. Also, the Kd in experiment [7] was > 30 µM (inactive); at Ephrin type-A receptor 4, 0.167 µM (active); in experiment [8], > 30 µM (inactive); in experiment [15], > 30 µM (inactive); in experiment [10], > 30 µM (inactive); in experiment [11], > 30 µM (inactive). In addition, the Kd in experiment [12], in [13] and in experiment [14] was > 30 µM (inactive) throughout.

A word on the Kd: it is a measure of binding affinity in units of concentration.
